Non-standard residues stand in square brackets, D forms with d. Residues, ends and D or L forms follow the SMILES beside them.
Tests used:
TNF-α = experiment: In-vitro anti-inflammatory test: TNF-α production by ELISA in LPS-treated macrophages (RAW 264.7); type: cell-based; conditions: RAW 264.7, LPS 100 ng/ml, test substance 1 μM and 10 μM, 24 hours, vs LPS-only control
Procedure: (§1) Lipopolysaccharide (LPS)-treated macrophages (RAW 264.7) were treated with the compounds prepared in Examples 1 and 2 as test substances, respectively, and the change in the production of inflammatory cytokines (TNF-α and IL-1β) was measured by ELISA and western blotting, respectively.
Specifically, 1×10^4 macrophages (RAW 264.7) were dispensed in each well of a 96-well plate together with 0.1 mL of Dulbecco's modified Eagle's medium (DMEM) containing 10% FBS (GIBCO) and 1% penicillin/streptomycin. After incubation for 1 day in a 5% CO2 incubator at 37° C., when the confluency of the cells reached 80% or higher, LPS (100 ng/ml) and the test substance were treated at concentrations of 1 μM and 10 μM, respectively, and incubated for 24 hours. A control group was treated only with LPS (100 ng/ml) and incubated for 24 hours. The supernatant of each test group was prepared as a sample for ELISA analysis. The production of TNF-α was investigated using an ELISA assay kit (ELISA MAX Standard Set Human TNF-α; BioLegend, #430201) and a microplate reader at 450 nm according to the manufacturer's protocol.

IL-1β = experiment: In-vitro anti-inflammatory test: IL-1β expression by western blotting in LPS-treated macrophages (RAW 264.7); type: cell-based; conditions: RAW 264.7, LPS 100 ng/ml, test substance 1 μM and 10 μM, 30 minutes, vs LPS-only control
Procedure: as §1
In addition, […] macrophages (RAW 264.7) were dispensed in each well of a 96-well plate together with 0.1 mL of Dulbecco's modified Eagle's medium (DMEM) containing 10% FBS (GIBCO) and 1% penicillin/streptomycin. After incubation for 1 day in a 5% CO2 incubator at 37° C., when the confluency of the cells reached 80% or higher, LPS (100 ng/ml) and the test substance were treated at concentrations of 1 μM and 10 μM, respectively, and incubated for 30 minutes. A control group was treated only with LPS (100 ng/ml) and incubated for 30 minutes. The cells were lysed using an NP40 cell lysis buffer and quantified by Bradford assay. Then, the expression level of IL-1β was measured by western blotting.

[1] = test system: dry eye syndrome-induced C57BL/6NHsd mice; experiment: Dry eye syndrome model: tear volume by phenol red thread test; type: in vivo; conditions: 2 μL/eye, 3 times a day; for tear volume level vs normal control group (G1) / tear volume level vs induced control group (G2): days 5 and 10; for tear volume level vs induced control group (G2): p<0.001, p<0.01 or p<0.05
Procedure: (§2) Dry eye syndrome was induced in specific pathogen-free (SPF) C57BL/6NHsd mice (male, 7 weeks old) [Koatech, Korea]. Specifically, during the dry eye syndrome induction period (from day −10 to day 0), scopolamine hydrobromide dissolved in physiological saline (PBS) was injected subcutaneously into the back skin of mice at a dose of 0.5 mg/0.2 mL, 4 times a day, for 10 days. After measuring the tear volume of the dry eye syndrome-induced mice, the mice were randomly divided into groups of G2 to G6 as shown in Table 1 so that the average tear volume of each group was distributed uniformly. G1 is a normal control group in which dry eye syndrome was not induced.
(§3) From the day of the induction of dry eye syndrome (day 0), the compound prepared in Example 2 as a test substance (i.e., acetate of the compound of the Chemical Formula 1b, hereinafter referred to as ‘Compound 1b’) was dissolved in physiological saline (PBS) at concentrations of 0.1% and 1% and dropped onto the center of the right cornea of the mice of G4 and G5 3 times a day for 10 days, respectively. G2 is a dry eye syndrome-induced control group. For G3, physiological saline (PBS) was dropped onto the center of the cornea of the right eye of the mice in which dry eye syndrome was induced. For G6 (positive control group), Restasis® ophthalmic solution (0.05%, containing cyclosporine) was dropped onto the center of the cornea of the right eye of the dry eye syndrome-induced mice.
Tear volume was measured by phenol red thread (PRT) test. Specifically, on days 5 and 10 after the start of the administration of the test substance, a phenol red thread was placed in the lateral canthus of the eye for 20 seconds and then tear volume (mm) was measured.
(§4) Statistical analysis was performed using Prism 7.04 (GraphPad Software Inc., San Diego, CA, USA), and a p-value smaller than 0.05 was judged to be statistically significant.

[2] = test system: dry eye syndrome-induced C57BL/6NHsd mice; experiment: Dry eye syndrome model: corneal fluorescein staining score (NEI grading); type: in vivo; conditions: 2 μL/eye, 3 times a day, day 5 to day 10; for corneal fluorescein staining score vs PBS group (G3): p<0.001 or p<0.01; for corneal fluorescein staining score vs normal control (G1): p<0.01 or p<0.05
Procedure: as §2, §3, §4

[3] = test system: dry eye syndrome-induced C57BL/6NHsd mice; experiment: Dry eye syndrome model: histopathological examination (H&E) of inflammation; type: in vivo; conditions: day 10; for level of inflammation and fibrosis vs G2 and G3 (histopathology): 2 μL/eye, 3 times a day for 10 days, p<0.001 or p<0.05
Procedure: as §2, §3
On the day of autopsy (day 10), the animal was euthanized and the eyeball was removed to include the conjunctiva and fixed in a 10% neutral buffered formalin solution. Samples for histopathological examination were prepared through the processes of trimming, dehydration, paraffin embedding and thin-sectioning of the fixed tissue, followed by hematoxylin and eosin (H&E) staining. Then, the infiltration of inflammatory cells into the cornea, conjunctiva and anterior chamber was evaluated by optical microscopy (Olympus BX53, Japan). The inflammation of the cornea and conjunctiva was assessed according to the known method. The scoring criteria were as follows. Scores: 0 (normal), 1 (mild), 2 (moderate), 3 (severe).
as §4

[4] = test system: corneal damage-induced Sprague-Dawley rats; experiment: Corneal damage model: histopathological examination (H&E) of inflammatory cell infiltration; type: in vivo; conditions: 10 μL/eye, 3 times a day for 7 days, day 7
Procedure: Corneal damage was induced in pathogen-free (SPF) Sprague-Dawley rats (male, 7 weeks old) [Koatech, Korea]. Specifically, after anesthetizing the rats, a filter paper soaked in 2 μL of 0.1 M NaOH solution was applied to the center of the cornea of the right eye for about 10 seconds, and then washed with physiological saline. The body weight of the corneal damage-induced rats was measured, and they were randomly divided into groups G2 to G6 as shown in Table 2 so that the average body weight of each group was distributed uniformly. G1 is a normal control group in which corneal damage was not induced. […]
On the day of autopsy (day 7), the animal was euthanized, and the eyeball was removed to include the conjunctiva and fixed in a 10% neutral buffered formalin solution. […] Then, the infiltration of inflammatory cells into the cornea, conjunctiva and anterior chamber was evaluated by optical microscopy (Olympus BX53, Japan). The infiltration of inflammatory cells into the corneal stroma and anterior chamber was evaluated according to the known method. […]

[5] = test system: corneal damage-induced Sprague-Dawley rats; experiment: Corneal damage model: corneal fluorescein staining score (NEI grading); type: in vivo; conditions: 10 μL/eye, 3 times a day; for corneal fluorescein staining score vs normal control group (G1): 6 hours to 5 days, p<0.01; for corneal fluorescein staining score vs induced control (G2): at 6 hours and on days 2 to 6, p<0.001, p<0.01 or p<0.05; for corneal fluorescein staining score vs PBS group (G3): days 3 to 6, p<0.001 or p<0.01
Procedure: Corneal damage was induced in pathogen-free (SPF) Sprague-Dawley rats (male, 7 weeks old) [Koatech, Korea]. Specifically, after anesthetizing the rats, a filter paper soaked in 2 μL of 0.1 M NaOH solution was applied to the center of the cornea of the right eye for about 10 seconds, and then washed with physiological saline. The body weight of the corneal damage-induced rats was measured, and they were randomly divided into groups G2 to G6 as shown in Table 2 so that the average body weight of each group was distributed uniformly. G1 is a normal control group in which corneal damage was not induced.
From the day of the corneal damage (day 0), the compound prepared in Example 2 as a test substance (i.e., acetate of the compound of the Chemical Formula 1b, hereinafter referred to as ‘Compound 1b’) was dissolved in physiological saline (PBS) at concentrations of 0.1% and 1% and instilled into the eye of the mice of G4 and G5 at 10 μL/eye, 3 times a day, for 7 days. G2 is an induced control group in which corneal damage was induced. For G3, physiological saline (PBS) was instilled 10 into the eye of the corneal damage-induced rats. For G6 (positive control), Restasis® ophthalmic solution (0.05%, containing cyclosporine) was instilled into the eye of the corneal damage-induced rats.
as §4

## NC(=O)C[C@@H](NC(=O)[C@H](N)CC(=O)O)C(=O)N[C@H](CC(=O)O)C(=O)O [Chemical Formula 1a] (H-[dD]-[dN]-[dD]-OH)
TNF-α
  secretion of inflammatory cytokine TNF-α: inhibited in a concentration-dependent manner
IL-1β
  expression of inflammatory cytokine IL-1β: inhibited in a concentration-dependent manner

## NC(=O)C[C@@H](NC(=O)[C@H](N)CC(=O)O)C(=O)N[C@H](CC(=O)O)C(N)=O [Compound 1b] (H-[dD]-[dN]-[dD]-NH2)
[1]; G4: 0.1% in PBS, day 10, p<0.001
  tear volume level vs PBS group (G3): significantly higher than that of G3
[1]; G4: 0.1% in PBS, p<0.001
  tear volume level vs normal control group (G1): statistically significantly lower than that of the normal control group (G1)
[1]; G4: 0.1% in PBS
  tear volume level vs induced control group (G2): significantly higher than that of G2
[1]; G5: 1% in PBS, day 5, p<0.01
  tear volume level vs PBS group (G3): statistically significantly higher than that of G3
[1]; G5: 1% in PBS, day 10, p<0.001
  tear volume level vs PBS group (G3): significantly higher than that of G3
[1]; G5: 1% in PBS, p<0.001
  tear volume level vs normal control group (G1): statistically significantly lower than that of the normal control group (G1)
[1]; G5: 1% in PBS
  tear volume level vs induced control group (G2): significantly higher than that of G2
TNF-α
  secretion of inflammatory cytokine TNF-α: inhibited in a concentration-dependent manner
[2]; G4: 0.1% in PBS
  corneal fluorescein staining score vs induced control (G2): significantly lower than that of G2
  corneal fluorescein staining score vs PBS group (G3): statistically significantly lower than that of G3
  corneal fluorescein staining score vs normal control (G1): statistically significantly higher than that of G1
[2]; G5: 1% in PBS
  corneal fluorescein staining score vs induced control (G2): significantly lower than that of G2
  corneal fluorescein staining score vs PBS group (G3): statistically significantly lower than that of G3
  corneal fluorescein staining score vs normal control (G1): statistically significantly higher than that of G1
[3]; 0.1% test substance-administered group
  inflammation in the cornea and conjunctiva (histopathology): no inflammation was observed
[3]; 1% test substance-administered group
  inflammation in the cornea and conjunctiva (histopathology): no inflammation was observed
[3]; G4: 0.1% in PBS
  level of inflammation and fibrosis vs G2 and G3 (histopathology): significantly lower as compared to G2 and G3
[3]; G5: 1% in PBS
  level of inflammation and fibrosis vs G2 and G3 (histopathology): significantly lower as compared to G2 and G3
[4]; G4: 0.1% in PBS
  degree of infiltration of inflammatory cells into corneal keratocytes and anterior chamber vs G2 and G3: statistically significantly lower
[4]; G5: 1% in PBS
  degree of infiltration of inflammatory cells into corneal keratocytes and anterior chamber vs G2 and G3: statistically significantly lower
IL-1β
  expression of inflammatory cytokine IL-1β: inhibited in a concentration-dependent manner
[5]; G4: 0.1% in PBS
  corneal fluorescein staining score vs normal control group (G1): statistically significantly higher than that of the normal control group (G1)
  corneal fluorescein staining score vs induced control (G2): significantly lower than that of G2
  corneal fluorescein staining score vs PBS group (G3): significantly lower than that of G3
[5]; G5: 1% in PBS
  corneal fluorescein staining score vs normal control group (G1): statistically significantly higher than that of the normal control group (G1)
  corneal fluorescein staining score vs induced control (G2): significantly lower than that of G2
  corneal fluorescein staining score vs PBS group (G3): significantly lower than that of G3
